Assay results taken from US20230183219A1, “CONDENSED SUBSTITUTED HYDROPYRROLES AS ANTAGONISTS OF THE MUSCARINIC ACETYLCHOLINE RECEPTOR M4” (Vanderbilt University, priority 2020, published 2023).
pIC50: −log10 of the molar value.

Molecular target: T1, Human M4 (Homo sapiens, UniProt P08173)
T1 construct: Human or rat M4 cDNA, along with the chimeric G protein Gqi5, were transfected into Chinese hamster ovary (CHO-K1) cells; expressed in transfected cells; host or cells: CHO-K1 (Chinese hamster ovary, ATCC), stably co-expressing Gqi5
T1 sequence (P08173 1-479): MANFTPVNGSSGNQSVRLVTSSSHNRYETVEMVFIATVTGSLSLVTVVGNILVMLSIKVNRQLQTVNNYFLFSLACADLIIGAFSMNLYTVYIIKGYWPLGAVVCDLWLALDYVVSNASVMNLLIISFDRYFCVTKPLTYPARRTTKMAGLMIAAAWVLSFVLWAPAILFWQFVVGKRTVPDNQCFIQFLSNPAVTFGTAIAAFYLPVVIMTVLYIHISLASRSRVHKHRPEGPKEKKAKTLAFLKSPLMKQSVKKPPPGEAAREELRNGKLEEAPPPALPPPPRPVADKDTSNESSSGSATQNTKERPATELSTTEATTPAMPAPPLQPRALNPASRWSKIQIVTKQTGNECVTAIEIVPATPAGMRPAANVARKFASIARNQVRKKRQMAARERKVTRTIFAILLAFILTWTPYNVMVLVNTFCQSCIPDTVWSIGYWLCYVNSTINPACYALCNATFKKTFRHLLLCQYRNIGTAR
Experiment: mAChR M4 cell-based functional assay (calcium flux, decrease of EC80 acetylcholine response)
Conditions: for remaining activity at 30 µM: % ACh maximum at 30 μM, read-out: Human M4 Emin; for pIC50: M4/Gqi5/CHO-K1 cells, decrease of response to EC80 acetylcholine
Method: Human or rat M4 cDNA, along with the chimeric G protein Gqi5, were transfected into Chinese hamster ovary (CHO-K1) cells purchased from the American Type Culture Collection using Lipofectamine2000. M4/Gqi5/CHO cells were grown in Ham's F-12 medium containing 10% heat-inactivated fetal bovine serum (FBS), 20 mM HEPES, 500 μg/mL G418 sulfate, and 200 μg/mL Hygromycin B.
For high throughput measurement of agonist-evoked increases in intracellular calcium, CHO-K1 cells stably expressing muscarinic receptors were plated in growth medium lacking G418 and hygromycin at 15,000 cells/20 μL/well in Greiner 384-well black-walled, tissue culture (TC)-treated, clear-bottom plates (VWR). Cells were incubated overnight at 37° C. and 5% CO2. The next day, cells were washed using an ELX 405 (BioTek) with assay buffer; the final volume was then aspirated to 20 μL. Next, 20 μL of a 2.3 μM stock of Fluo-4/acetoxymethyl ester (Invitrogen, Carlsbad, Calif.), prepared as a 2.3 mM stock in DMSO and mixed in a 1:1 ratio with 10% (w/v) Pluronic F-127 and diluted in assay buffer, was added to the wells and the cell plates were incubated for 50 min at 37° C. and 5% CO2. Dye was removed by washing with the ELX 405 and the final volume was aspirated to 20 μL. Compound master plates were formatted in a 10 point concentration-response curve (CRC) format (1:3 dilutions) in 100% DMSO with a starting concentration of 10 or 1 mM using a BRAVO liquid handler (Agilent). Test compound CRCs were then transferred to daughter plates (240 nL) using the Echo acoustic plate reformatter (Labcyte, Sunnyvale, Calif.) and then diluted into assay buffer (40 μL) to a 2×stock using a Thermo Fisher Combi (Thermo Fisher Scientific, Waltham, Mass.).
Calcium flux was measured using the Functional Drug Screening System (FDSS) 6000 or 7000 (Hamamatsu Corporation, Tokyo, Japan) as an increase in the fluorescent static ratio. Compounds were applied to cells (20 μL, 2×) using the automated system of the FDSS at 2 seconds into the protocol and the data were collected at 1 Hz. At 143 s, 10 μL of an EC20 concentration of the muscarinic receptor agonist acetylcholine was added (5×), followed by the addition of 12 μL of an EC80 concentration of acetylcholine at the 268 s time point (5×). Agonist activity was analyzed as a concentration-dependent increase in calcium mobilization upon compound addition. Positive allosteric modulator activity was analyzed as a concentration-dependent increase in the EC20 acetylcholine response. Antagonist activity was analyzed as a concentration-dependent decrease in the EC80 acetylcholine response; for the purposes of the tables herein, an IC50 (inhibitory concentration 50) was calculated as a concentration-dependent decrease of the response elicited by an EC80 concentration of acetylcholine. Concentration-response curves were generated using a four-parameter logistical equation in XLFit curve fitting software (IDBS, Bridgewater, N.J.) for Excel (Microsoft, Redmond, Wash.) or Prism (GraphPad Software, Inc., San Diego, Calif.) or the Dotmatics software platform (Dotmatics, Bishop's Stortford, UK).
Compounds were synthesized as described above. Activity (IC50 and Emin) was determined in the mAChR M4 cell-based functional assay as described above and the data are shown in Table 2.

remaining activity at 30 µM [%] | pIC50 | Structure (SMILES)
3 | 6.76 | [2H]C([2H])(C1CCOCC1)N1C[C@H]2C[C@H](Nc3nnc(-c4cc(F)cc(F)c4F)cc3C(F)(F)F)C[C@H]2C1 [Example 124, (3aR,5s,6aS)-2-((tetrahydro-2H-pyran-4-yl)methyl-d2)-N-(4-(trifluoromethyl)-6-(2,3,5-trifluorophenyl)pyridazin-3-yl)octahydrocyclopenta[c]pyrrol-5-amine]
3 | 7.51 | Cc1ccc(F)cc1-c1cc(C(F)(F)F)c(N[C@H]2C[C@@H]3CN(C[C@@H]4COCCO4)C[C@@H]3C2)nn1 [Example 21, (3aR,5s,6aS)-2-(((R)-1,4-dioxan-2-yl)methyl)-N-(6-(5-fluoro-2-methylphenyl)-4-(trifluoromethyl)pyridazin-3-yl)octahydro-cyclopenta[c]pyrrol-5-amine]
2 | 8.04 | F[C@@H]1CCN(c2cc(C(F)(F)F)c(N[C@H]3C[C@@H]4CN(CC5CCOCC5)C[C@@H]4C3)nn2)C1 [Example 140, (3aR,5s,6aS)-N-(6-((R)-3-fluoropyrrolidin-1-yl)-4-(trifluoromethyl)pyridazin-3-yl)-2-((tetrahydro-2H-pyran-4-yl)methyl)octahydro-cyclopenta[c]pyrrol-5-amine]
3 | 7.19 | [2H][C@@]1(Nc2nnc(-c3cccc(F)c3)cc2C(F)(F)F)C[C@H]2CN(CC3CCOCC3)C[C@H]2C1 [Example 127, (3aR,5s,6aS)-N-(6-(3-fluoro-phenyl)-4-(trifluoromethyl)pyridazin-3-yl)-2-((tetrahydro-2H-pyran-4-yl)methyl)octahydro-cyclopenta[c]pyrrol-5-d-5-amine]
3 | 6.76 | COc1cc(F)c(-c2cc(C(F)(F)F)c(N[C@H]3C[C@@H]4CN(CC5CCOCC5)C[C@@H]4C3)nn2)cc1F [Example 78, (3aR,5s,6aS)-N-(6-(2,5-difluoro-4-methoxyphenyl)-4-(trifluoromethyl)pyridazin-3-yl)-2-((tetrahydro-2H-pyran-4-yl)methyl)octahydro-cyclopenta[c]pyrrol-5-amine]
3 | 7.13 | CCOc1ccc(-c2cc(C(F)(F)F)c(N[C@H]3C[C@@H]4CN(CC5CCOCC5)C[C@@H]4C3)nn2)c(C)c1 [Example 84, (3aR,5s,6aS)-N-(6-(4-ethoxy-2-methylphenyl)-4-(trifluoromethyl)pyridazin-3-yl)-2-((tetrahydro-2H-pyran-4-yl)methyl)octahydro-cyclopenta[c]pyrrol-5-amine]
3 | 6.60 | FC(F)(F)Oc1ccccc1-c1cc(C(F)(F)F)c(N[C@H]2C[C@@H]3CN(CC4CCOCC4)C[C@@H]3C2)nn1 [Example 58, (3aR,5s,6aS)-2-((tetrahydro-2H-pyran-4-yl)methyl)-N-(6-(2-(trifluoro-methoxy)phenyl)-4-(trifluoromethyl)pyridazin-3-yl)octahydro-cyclopenta[c]pyrrol-5-amine]
4 | 6.56 | Cn1cc2cc(-c3cc(C(F)(F)F)c(N[C@H]4C[C@@H]5CN(Cc6ccccn6)C[C@@H]5C4)nn3)ccc2n1 [Example 106, (3aR,5s,6aS)-N-(6-(2-methyl-2H-indazol-5-yl)-4-(trifluoromethyl)pyridazin-3-yl)-2-(pyridin-2-ylmethyl)octahydro-cyclopenta[c]pyrrol-5-amine]
15 | 7.06 | Cn1cc2cc(-c3cc(C#N)c(N[C@H]4C[C@@H]5CN(C[C@@H]6CCOC6)C[C@@H]5C4)nn3)ccc2n1 [Example 154, 6-(2-methyl-2H-indazol-5-yl)-3-(((3aR,5s,6aS)-2-(((S)-tetrahydrofuran-3-yl)methyl)octahydro-cyclopenta[c]pyrrol-5-yl)amino)pyridazine-4-carbonitrile]
11 | 8.01 | Cn1cc2cc(-c3cc(C#N)c(N[C@H]4C[C@@H]5CN(CC6CCOCC6)C[C@@H]5C4)nn3)ccc2n1 [Example 153, 6-(2-methyl-2H-indazol-5-yl)-3-(((3aR,5s,6aS)-2-((tetrahydro-2H-pyran-4-yl)methyl)octahydro-cyclopenta[c]pyrrol-5-yl)amino)pyridazine-4-carbonitrile]
3 | 7.58 | [2H]C([2H])(C1CCOCC1)N1C[C@H]2C[C@H](Nc3nnc(-c4ccccc4OC)cc3C(F)(F)F)C[C@H]2C1 [Example 107, (3aR,5s,6aS)-N-(6-(2-methoxyphenyl)-4-(trifluoromethyl)pyridazin-3-yl)-2-((tetrahydro-2H-pyran-4-yl)methyl-d2)octahydro-cyclopenta[c]pyrrol-5-amine]
3 | 6.62 | Cc1cc(-c2cc(C(F)(F)F)c(N[C@H]3C[C@@H]4CN(CC5CCOCC5)C[C@@H]4C3)nn2)c(C)cc1F [Example 51, (3aR,5s,6aS)-N-(6-(4-fluoro-2,5-dimethylphenyl)-4-(trifluoromethyl)pyridazin-3-yl)-2-((tetrahydro-2H-pyran-4-yl)methyl)octahydro-cyclopenta[c]pyrrol-5-amine]
2 | 7.95 | Cc1ccc(F)cc1-c1cc(C(F)(F)F)c(N[C@H]2C[C@@H]3CN(C[C@H]4CC5CCC4O5)C[C@@H]3C2)nn1 (stereo partly drawn) [Example 25, (3aR,5s,6aS)-2-(((2R)-7-oxabicyclo[2.2.1]heptan-2-yl)methyl)-N-(6-(5-fluoro-2-methylphenyl)-4-(trifluoromethyl)pyridazin-3-yl)octahydro-cyclopenta[c]pyrrol-5-amine]
3 | 7.14 | [2H]C([2H])(C1CCOCC1)N1C[C@H]2C[C@H](Nc3nnc(-c4cnn(C)c4)cc3C(F)(F)F)C[C@H]2C1 [Example 109, (3aR,5s,6aS)-N-(6-(1-methyl-1H-pyrazol-4-yl)-4-(trifluoro-methyl)pyridazin-3-yl)-2-((tetrahydro-2H-pyran-4-yl)methyl-d2)octahydro-cyclopenta[c]pyrrol-5-amine]
6 | 7.83 | Cc1ccc(F)cc1-c1cc(C#N)c(N[C@H]2C[C@@H]3CN(C[C@H]4CCOC4)C[C@@H]3C2)nn1 [Example 152, 6-(5-fluoro-2-methylphenyl)-3-(((3aR,5s,6aS)-2-(((R)-tetrahydrofuran-3-yl)methyl)octahydro-cyclopenta[c]pyrrol-5-yl)amino)pyridazine-4-carbonitrile]
4 | 6.65 | N#Cc1ccc(F)c(-c2cc(C(F)(F)F)c(N[C@H]3C[C@@H]4CN(CC5CCOCC5)C[C@@H]4C3)nn2)c1 [Example 54, 4-fluoro-3-(6-(((3aR,5s,6aS)-2-((tetrahydro-2H-pyran-4-yl)methyl)octahydro-cyclopenta[c]pyrrol-5-yl)amino)-5-(trifluoro-methyl)pyridazin-3-yl)benzonitrile]
